pEC50: −log10 of the molar value. Where two headings read alike, the source gives them in different places.
Test system: FLU A (PR/8/34)
Experiment: Flu A Neuraminidase Antiviral Assay
Type: cell-based

Work on `Cc1cccc(C2(C)CCCC3N(CC(F)F)C(=O)c4c(O)c(=O)ccn4N32)n1` (single isomer, unassigned) [Compound 54B, 5-(2,2-difluoroethyl)-7-hydroxy-1-methyl-1-(6-methylpyridin-2-yl)-1,2,3,4,4a,5-hexahydrodipyrido[1,2-b:2′,1′-f][1,2,4]triazine-6,8-dione] yielded a pEC50 of 7.60.
Compound `CCN1C(=O)c2c(O)c(=O)ccn2N2C1CCCC2(C)c1cccc(C2CC2)n1` (single isomer, unassigned) [Compound 55A, 1-(6-cyclopropylpyridin-2-yl)-5-ethyl-7-hydroxy-1-methyl-1,2,3,4,4a,5-hexahydrodipyrido[1,2-b:2′,1′-f][1,2,4]triazine-6,8-dione] has a pEC50 of under 6.09.
For `CCN1C(=O)c2c(O)c(=O)ccn2N2C1CCCC2(C)c1cccc(C2CC2)n1` (single isomer, unassigned) [Compound 55B, 1-(6-cyclopropylpyridin-2-yl)-5-ethyl-7-hydroxy-1-methyl-1,2,3,4,4a,5-hexahydrodipyrido[1,2-b:2′,1′-f][1,2,4]triazine-6,8-dione], the pEC50 was 7.73.
`O=C1c2c(O)c(=O)ccn2N2C(c3ccccc3)CCCC2N1CC1CC1` (single isomer, unassigned) [Compound 56A, 5-(cyclopropylmethyl)-7-hydroxy-1-phenyl-1,2,3,4,4a,5-hexahydrodipyrido[1,2-b:2′,1′-f][1,2,4]triazine-6,8-dione] showed a pEC50 of under 5.09.
Compound `O=C1c2c(O)c(=O)ccn2N2C(c3ccccc3)CCCC2N1CC1CC1` (single isomer, unassigned) [Compound 56B, 5-(cyclopropylmethyl)-7-hydroxy-1-phenyl-1,2,3,4,4a,5-hexahydrodipyrido[1,2-b:2′,1′-f][1,2,4]triazine-6,8-dione] has a pEC50 of 5.16.
With `O=C1c2c(O)c(=O)ccn2N2C(c3ccccc3)CCCC2N1CC1CC1` (single isomer, unassigned) [Compound 56C, 5-(cyclopropylmethyl)-7-hydroxy-1-phenyl-1,2,3,4,4a,5-hexahydrodipyrido[1,2-b:2′,1′-f][1,2,4]triazine-6,8-dione] the pEC50 was under 5.09.
`O=C1c2c(O)c(=O)ccn2N2C(c3ccccc3)CCCC2N1CC1CC1` (single isomer, unassigned) [Compound 56D, 5-(cyclopropylmethyl)-7-hydroxy-1-phenyl-1,2,3,4,4a,5-hexahydrodipyrido[1,2-b:2′,1′-f][1,2,4]triazine-6,8-dione] was tested, and the pEC50 was 7.42.
Work on `CN1C(=O)c2c(O)c(=O)ccn2N2C(c3ccccc3)CCCCC12` (single isomer, unassigned) [Compound 57A, 4-hydroxy-6-methyl-11-phenyl-6a,7,8,9,10,11-hexahydro-3H-pyrido[1′,2′:1,6][1,2,4]triazino[2,3-a]azepine-3,5(6H)-dione] yielded a pEC50 of 7.02.
`CN1C(=O)c2c(O)c(=O)ccn2N2C(c3ccccc3)CCCCC12` (single isomer, unassigned) [Compound 57B, 4-hydroxy-6-methyl-11-phenyl-6a,7,8,9,10,11-hexahydro-3H-pyrido[1′,2′:1,6][1,2,4]triazino[2,3-a]azepine-3,5(6H)-dione] showed a pEC50 of under 5.09.
`CN1C(=O)c2c(O)c(=O)ccn2N2C(c3ccccc3)CCCC12C` (single isomer, unassigned) [Compound 59A, 7-hydroxy-4a,5-dimethyl-1-phenyl-1,2,3,4,4a,5-hexahydrodipyrido[1,2-b:2′,1′-f][1,2,4]triazine-6,8-dione] was tested, and the pEC50 was 5.14.
Compound `CN1C(=O)c2c(O)c(=O)ccn2N2C(c3ccccc3)CCCC12C` (single isomer, unassigned) [Compound 59B, 7-hydroxy-4a,5-dimethyl-1-phenyl-1,2,3,4,4a,5-hexahydrodipyrido[1,2-b:2′,1′-f][1,2,4]triazine-6,8-dione] has a pEC50 of 7.92.
For `CN1C(=O)c2c(O)c(=O)ccn2N2C(c3ccccc3)CCC12` (single isomer, unassigned) [Compound 60A, 6-hydroxy-4-methyl-1-phenyl-2,3,3a,4-tetrahydro-1H-pyrido[2,1-f]pyrrolo[1,2-b][1,2,4]triazine-5,7-dione], the pEC50 (MDCK, 48 h) was under 5.09.
In the case of `CN1C(=O)c2c(O)c(=O)ccn2N2C1CCC2(C)c1ccccc1` (single isomer, unassigned) [Compound 61A, 6-hydroxy-1,4-dimethyl-1-phenyl-2,3,3a,4-tetrahydro-1H-pyrido[2,1-f]pyrrolo[1,2-b][1,2,4]triazine-5,7-dione], the pEC50 was 6.91.
Compound `CN1C(=O)c2c(O)c(=O)ccn2N2C1CCC2(C)c1ccccc1` (single isomer, unassigned) [Compound 61B, 6-hydroxy-1,4-dimethyl-1-phenyl-2,3,3a,4-tetrahydro-1H-pyrido[2,1-f]pyrrolo[1,2-b][1,2,4]triazine-5,7-dione] has a pEC50 of 5.56.
In the case of `CCC1(c2ccccc2)CCC2N(C)C(=O)c3c(O)c(=O)ccn3N21` (single isomer, unassigned) [Compound 62B, 1-ethyl-6-hydroxy-4-methyl-1-phenyl-2,3,3a,4-tetrahydro-1H-pyrido[2,1-f]pyrrolo[1,2-b][1,2,4]triazine-5,7-dione], the pEC50 was under 5.09.
`CCC1(c2ccccc2)CCC2N(C)C(=O)c3c(O)c(=O)ccn3N21` (single isomer, unassigned) [Compound 62C, 1-ethyl-6-hydroxy-4-methyl-1-phenyl-2,3,3a,4-tetrahydro-1H-pyrido[2,1-f]pyrrolo[1,2-b][1,2,4]triazine-5,7-dione] gave a pEC50 of 5.13.
In the case of `CCC1(c2ccccc2)CCC2N(C)C(=O)c3c(O)c(=O)ccn3N21` (single isomer, unassigned) [Compound 62D, 1-ethyl-6-hydroxy-4-methyl-1-phenyl-2,3,3a,4-tetrahydro-1H-pyrido[2,1-f]pyrrolo[1,2-b][1,2,4]triazine-5,7-dione], the pEC50 was 5.10.
Work on `CN1C(=O)c2c(O)c(=O)ccn2N2C1CCC2(C)c1ccccc1Cl` (single isomer, unassigned) [Compound 63A, 1-(2-chlorophenyl)-6-hydroxy-1,4-dimethyl-2,3,3a,4-tetrahydro-1H-pyrido[2,1-f]pyrrolo[1,2-b][1,2,4]triazine-5,7-dione] yielded a pEC50 of under 5.09.
Work on `CN1C(=O)c2c(O)c(=O)ccn2N2C1CCC2(C)c1ccccc1Cl` (single isomer, unassigned) [Compound 63B, 1-(2-chlorophenyl)-6-hydroxy-1,4-dimethyl-2,3,3a,4-tetrahydro-1H-pyrido[2,1-f]pyrrolo[1,2-b][1,2,4]triazine-5,7-dione] yielded a pEC50 of 6.80.
Compound `CN1C(=O)c2c(O)c(=O)ccn2N2C1CCC1(CCC(F)(F)C1)C2c1ccccc1` (single isomer, unassigned) [Compound 68A, 3,3-difluoro-7′-hydroxy-5′-methyl-1′-phenyl-3′,4′,4a′,5′-tetrahydro-1′H-spiro[cyclopentane-1,2′-dipyrido[1,2-b:2′,1′-f][1,2,4]triazine]-6′,8′-dione] has a pEC50 (MDCK, 48 h) of 6.46.
`CN1C(=O)c2c(O)c(=O)ccn2N2C1CCC1(CCC(F)(F)C1)C2c1ccccc1` (single isomer, unassigned) [Compound 68B, 3,3-difluoro-7′-hydroxy-5′-methyl-1′-phenyl-3′,4′,4a′,5′-tetrahydro-1′H-spiro[cyclopentane-1,2′-dipyrido[1,2-b:2′,1′-f][1,2,4]triazine]-6′,8′-dione] gave a pEC50 of under 6.09.
With `CN1C(=O)c2c(O)c(=O)ccn2N2C1CCC1(CCC(F)(F)C1)C2c1ccccc1` (single isomer, unassigned) [Compound 68C, 3,3-difluoro-7′-hydroxy-5′-methyl-1′-phenyl-3′,4′,4a′,5′-tetrahydro-1′H-spiro[cyclopentane-1,2′-dipyrido[1,2-b:2′,1′-f][1,2,4]triazine]-6′,8′-dione] the pEC50 was 7.94.
`CN1C(=O)c2c(O)c(=O)ccn2N2C1CCC1(CCC(F)(F)C1)C2c1ccccc1` (single isomer, unassigned) [Compound 68D, 3,3-difluoro-7′-hydroxy-5′-methyl-1′-phenyl-3′,4′,4a′,5′-tetrahydro-1′H-spiro[cyclopentane-1,2′-dipyrido[1,2-b:2′,1′-f][1,2,4]triazine]-6′,8′-dione] gave a pEC50 of 7.93.
`Cc1ccccc1C1N2C(CCC13CC1C(C3)C1(F)F)N(C)C(=O)c1c(O)c(=O)ccn12` (single isomer, unassigned) [Compound 69A, 6,6-difluoro-7′-hydroxy-5′-methyl-1′-(o-tolyl)-3′,4′,4a′,5′-tetrahydro-1′H-spiro[bicyclo[3.1.0]hexane-3,2′-dipyrido[1,2-b:2′,1′-f][1,2,4]triazine]-6′,8′-dione] gave a pEC50 of 8.64.
Work on `Cc1ccccc1C1N2C(CCC13CC1C(C3)C1(F)F)N(C)C(=O)c1c(O)c(=O)ccn12` (single isomer, unassigned) [Compound 69B, 6,6-difluoro-7′-hydroxy-5′-methyl-1′-(o-tolyl)-3′,4′,4a′,5′-tetrahydro-1′H-spiro[bicyclo[3.1.0]hexane-3,2′-dipyrido[1,2-b:2′,1′-f][1,2,4]triazine]-6′,8′-dione] yielded a pEC50 of 7.24.
`Cc1ccccc1C1N2C(CCC13CC1C(C3)C1(F)F)N(C)C(=O)c1c(O)c(=O)ccn12` (single isomer, unassigned) [Compound 69C, 6,6-difluoro-7′-hydroxy-5′-methyl-1′-(o-tolyl)-3′,4′,4a′,5′-tetrahydro-1′H-spiro[bicyclo[3.1.0]hexane-3,2′-dipyrido[1,2-b:2′,1′-f][1,2,4]triazine]-6′,8′-dione] was tested, and the pEC50 was 7.05.
In the case of `Cc1ccccc1C1N2C(CCC13CCC(F)(F)CC3)N(C)C(=O)c1c(O)c(=O)ccn12` (single isomer, unassigned) [Compound 70A, 4,4-difluoro-7′-hydroxy-5′-methyl-1′-(o-tolyl)-3′,4′,4a′,5′-tetrahydro-1′H-spiro[cyclohexane-1,2′dipyrido[1,2-b:2′,1′-f][1,2,4]triazine]-6′,8′-dione], the pEC50 was 6.52.
Compound `Cc1ccccc1C1N2C(CCC13CCC(F)(F)CC3)N(C)C(=O)c1c(O)c(=O)ccn12` (single isomer, unassigned) [Compound 70B, 4,4-difluoro-7′-hydroxy-5′-methyl-1′-(o-tolyl)-3′,4′,4a′,5′-tetrahydro-1′H-spiro[cyclohexane-1,2′dipyrido[1,2-b:2′,1′-f][1,2,4]triazine]-6′,8′-dione] has a pEC50 of 8.70.
Work on `CN1C(=O)c2c(O)c(=O)ccn2N2C1CCC(C)(CC(F)(F)F)C2c1ccccc1` (single isomer, unassigned) [Compound 71A, 7-hydroxy-2,5-dimethyl-1-phenyl-2-(2,2,2-trifluoroethyl)-1,2,3,4,4a,5-hexahydrodipyrido[1,2-b:2′,1′-f][1,2,4]triazine-6,8-dione] yielded a pEC50 of 5.23.

Source: US20240018145A1, “[…]-DEPENDENT EN[…] TREATING OR […]” (priority 2020, published 2024)
